Assay results published in patent publication US11191811B2, “Osteocalcin as a treatment for frailty associated with aging” (THE TRUSTEES OF COLUMBIA UNIVERSITY IN THE CITY OF NEW YORK, priority 2014, dated 2021).
“Also recorded” adds a separate entry of the source.

Tests used:
wild-type mice = test: Allergen-triggered asthma-like condition, osteocalcin delivery; assay type: in vivo, mouse
Method: The level of acetylcholine, a neurotransmitter that causes bronchoconstriction, is increased in the lungs but not in the brains of Osteocalcin^−/− and Gprc6a^−/− mice.
When metacholine is administered to the lungs of mice, the lung airways constrict. […] Wild-type mice were treated with an inflammation-increasing agent and developed asthma that included bronchoconstriction and signs of inflammation.

[1] = test system: wild type mice injected with gold thioglucose (GTG); test: GTG-induced obesity; assay type: in vivo, mouse
Method: FIG. 5. Osteocalcin subcutaneous infusion alleviates GTG-induced obesity in wild-type mice. Wild-type mice were injected with gold thioglucose (GTG) or vehicle to induce hyperphagia and obesity. Two weeks later they were implanted with subcutaneous osmotic pumps infusing […] of recombinant osteocalcin or PBS for 28 days before. Body weight gain was recorded thereafter at indicated days.
For GTG-induced obesity, male and female 4 week-old wild-type (WT) and Osteocalcin^−/− mice (n=10 per group) were injected with […] of GTG
The effect of uncarboxylated osteocalcin on GTG-induced obesity was investigated (FIG. 5). Wild type mice were injected with gold thioglucose (GTG) to induce hyperphagia and obesity or vehicle. Two weeks later they were implanted with subcutaneous osmotic pumps infusing 1 ng/hr of recombinant uncarboxylated osteocalcin or PBS for 28 days. […] At 28 days, body weight was reduced by about 15% with uncarboxylated osteocalcin treatment.

Osteocalcin−/− embryos = test: Brain histology, apoptosis and Western blot of Osteocalcin−/− offspring of injected Osteocalcin−/− mothers; assay type: in vivo, mouse
Method: FIG. 13. Maternal osteocalcin determines spatial learning and memory in adult offspring. (A-F) DLT (A), EPMT (B), OFT (C), FST (D), TST (E), and MWMT (F) performed in 3-month-old Osteocalcin^−/− mice born from Osteocalcin^−/− mothers injected once a day with vehicle or recombinant uncarboxylated osteocalcin (240 ng/day) during pregnancy compared to WT mice. (G) Surface of the lateral ventricle over brain area (%) of E18.5 hippocampi coronal sections of WT embryos originating from WT mothers and Osteocalcin^−/− embryos originating from osteocalcin-injected Osteocalcin^−/− mothers. (H) Number of apoptotic cells (stained by TUNEL assay) of E18.5 hippocampi coronal sections of WT embryos originating from WT mothers and Osteocalcin^−/− embryos originating from Osteocalcin^−/− mothers injected with osteocalcin (240 ng/day). (I) Cresyl violet, NeuN immunofluorescence, and dentate gyrus area (% versus WT) of WT and Osteocalcin^−/− embryos originating from osteocalcin-injected Osteocalcin^−/− mothers. Scale bars=0.5 mm.
Immunofluorescence of whole adult and embryonic brains was performed on […] coronal cryostat slices of tissue fixed with 4% PFA, embedded in cryomatrix (Tissue-Tek) and stored at −80° C. Sections were allowed to dry at room temperature, post-fixed in 4% PFA followed by permeabilization with 0.1% Triton detergent. After room temperature blocking with donkey serum, sections were incubated with anti-Neun antibody (Millipore) overnight at 4° C. Slides were mounted with Fluorogel (Electron Microscopy Sciences).
Cresyl violet staining to visualize brain morphology was carried out by incubating 20 μm cryosections defatted with 1:1 chloroform:ethanol in cresyl violet acetate (1 g/L) overnight. The stain was differentiated using ethanol and xylene and mounted using DPX mounting medium for histology (Sigma).
To assess apoptosis in WT and Osteocalcin^−/− brains, 20 μm cryostat sections were processed using the APOPTAG® Fluorescein Direct In Situ Apoptosis Detection Kit (Millipore) according to manufacturer's protocol. Images were obtained using Leica DM 4000B, and Image J was used to quantify cell number and intensity of staining.
To further evaluate the importance of maternal osteocalcin for the acquisition of spatial learning and memory in adult offspring, pregnant Osteocalcin^−/− mothers from E0.5 to E18.5 were treated with injections, once a day, of osteocalcin (240 ng/day). Osteocalcin was never injected in these females or their pups after delivery. […] Likewise, the number of apoptotic cells was reduced and the number of NeuN positive cells was increased compared to Osteocalcin^−/− embryos originating from Osteocalcin^−/− mothers that were not injected (FIG. 13I-J).

Leydig cells = test: Testosterone production by testis explants or primary Leydig cells; assay type: cell-based, mouse; details: recombinant uncarboxylated osteocalcin 0-100 ng/ml of culture medium (FIG. 10)
Method: FIG. 10. Osteocalcin favors male fertility by increasing testosterone production by Leydig cells. (A-B) Testosterone production by testis explants (A) or primary Leydig cells (B) cultured in the presence of supernatants of wild type (WT) or Osteocalcin^−/− osteoblast cultures. (C-D) Testosterone production by testis explants (C) or primary Leydig cells (D) following stimulation with increasing doses of recombinant uncarboxylated osteocalcin (0, 0.3, 1, 3, 10, 100 ng/ml of culture medium). (E) Circulating testosterone levels in WT mice 1 hour, 4 hours, and 8 hours after vehicle or recombinant uncarboxylated osteocalcin (3 ng/g of body weight) injection. (F-G) Comparison between the average litter size (F) and frequency (G) generated by WT, Osteocalcin^−/−, or Esp^−/− male littermate mice crossed with WT females (breeding was tested from 6 to 16 weeks of age). (H-L) Testis size (H), testis weight (I), epididymides weight (J), seminal vesicles weight (K), and sperm count (L) in Osteocalcin^−/− and Esp^−/− compared to WT littermate mice. (M) Circulating steroid sex hormone levels in Osteocalcin^−/− and Esp^−/− compared to WT littermate mice. The analyses were performed on breeder and non-breeder mice. Error bars represent SEM. Student's t test (*) P<0.05, (**) P<0.001.

[2] = delivery by nebulization (two weeks)
[3] = E18.5 embryos, versus embryos of mothers not injected

uncarboxylated osteocalcin: Recombinant uncarboxylated mouse osteocalcin, bacterially produced, purified on glutathione beads and cleaved from the GST subunit by thrombin (YLGASVPSPDPLEPTREQCELNPACDELSDQYGLKTAYKRIYGITI)
bronchoconstriction (wild-type mice; [2]): completely rescued
local inflammation / inflammatory signs (wild-type mice; [2]): without affecting; also recorded: still observed
bronchoconstriction (wild-type mice; osteocalcin delivered to the brains): did not show a similar effect
body weight gain ([1]; 1 ng/hr subcutaneous osmotic pumps for 28 days, from 7 days on): significantly reduced
reduction of body weight ([1]; 1 ng/hr, at 28 days): about 15%
GTG-induced obesity ([1]; subcutaneous infusion 28 days (FIG. 5 title)): alleviates
cerebral ventricle enlargement (Osteocalcin−/− embryos; E18.5 Osteocalcin−/− embryos, mothers injected 240 ng/day, cresyl violet): rescue
Caspase-3 cleaved protein level in the hippocampus (Osteocalcin−/− embryos; E18.5 embryos, Western blot, versus mothers not injected): decrease
number of NeuN positive cells (Osteocalcin−/− embryos; [3]): increased
number of apoptotic cells (Osteocalcin−/− embryos; [3]): reduced
thickness defect in the CA3 and CA4 regions of the hippocampus (Osteocalcin−/− embryos; adult Osteocalcin−/− originating from Osteocalcin−/− mothers): rescue
testosterone production by Leydig cells (Leydig cells): increasing
